Source: US10730881B2, “Fused pyrimidine derivatives” (Hoffmann-La Roche Inc., priority 2016, dated 2020)
pEC50: −log10 of the molar value.

Target: γ-secretase (Homo sapiens, UniProt P49768)
Test: Cellular γ-secretase assay (inhibition of Aβ42 secretion, AlphaLisa)
Format: cell-based
Settings: human neuroglioma H4 cells overexpressing human APP695 Swedish double mutation, 24 hr compound incubation
Procedure: Human neuroglioma H4 cells overexpressing human APP695 with the Swedish double mutation (K595N/M596L) were plated at 30,000 cells/well/100 μl in 96-well plates in IMDM media containing 10% FCS, 0.2 mg/l Hygromycin B and incubated at 37° C., 5% CO2. 3-4 hr post plating, compounds are a diluted in media and 50 μl is added as 1.5-fold concentrate to achieve the final concentration. Compound incubation is performed for 24 hr. Final doses typically range from 4 μM down to 0.0013 μM in half-log steps resulting in a eight point dose response curve. Appropriate controls using vehicle only and reference compound were applied to this assay. The final concentration of Me2SO was 0.4%. After incubation at 37° C., 5% CO2, the supernatant was subjected to quantification of secreted Aβ42 by the means of an AlphaLisa assay kit (Human Amyloid beta 1-42 Kit: Cat # A[…], Perkin Elmer). 20 μl of the cell culture supernatant was transferred to an assay plate. […] The assay plate was then read on a Paradigm AlphaLisa Reader using the build-in program with excitation at 680 nm and emission at 570 nm. The measured signals were then used to calculate IC50 values for inhibition of Aβ42 secretion by nonlinear regression fit analysis using XLfit 5.3 software (IDBS).

## CNc1nc(N[C@@H]2[C@@H]3CC[C@H]2CN(c2cc(C)ncn2)C3)nc2c1C(C)(C)CN2C1CC(F)(F)C1 [Example 13, 7-(3,3-Difluorocyclobutyl)-N4,5,5-trimethyl-N2-((1R,5S,8s)-3-(6-methylpyrimidin-4-yl)-3-azabicyclo[3.2.1]octan-8-yl)-6,7-dihydro-5H-pyrrolo[2,3-d]pyrimidine-2,4-diamine]
  pEC50: 7.44
